By EC50 is commonly meant the concentration needed to bring the measured effect to its halfway point. In general, Emax refers to the maximal effect, on the per cent scale that the assay sets.

Starred links: 1 amine or outer side, 2 acyl side, 3 side chain; linkers in the order of their positions; H or OH if unused. Non-standard residues stand in square brackets, D forms with d. Residues, ends and D or L forms follow the SMILES beside them. Groups on a side chain read outwards from the residue. *: point of attachment. X15 = CCCCCCCCCCCCCCCCCC(=O)N[C@@H](CCC(=O)N[C@@H](CCC(=O)N[C@@H](CCC(=O)NCCCOCCOCCOCCCNC(=O)COCC(=O)NCCCOCCOCCOCCCNC(=O)COCC(=O)NCCCOCCOCCOCCCNC(=O)COCC(=O)*)C(=O)O)C(=O)O)C(=O)O; X3 = CCCCCCCCCCCCCCCCCC(=O)N[C@@H](CCC(=O)N[C@@H](CCC(=O)N[C@@H](CCC(=O)NCCCOCCOCCOCCCNC(=O)CCC(=O)NCCCOCCOCCOCCCNC(=O)CCC(=O)NCCCOCCOCCOCCCN*)C(=O)O)C(=O)O)C(=O)O; X1 = CCCCCCCCCCCCCCCC(=O)N[C@@H](CCC(=O)N[C@@H](CCC(=O)N[C@@H](CCC(=O)NCCCOCCOCCOCCCNC(=O)CCC(=O)NCCCOCCOCCOCCCNC(=O)CCC(=O)NCCCOCCOCCOCCCN*)C(=O)O)C(=O)O)C(=O)O; X4 = CCCCCCCCCCCCCCCCCC(=O)N[C@@H](CCC(=O)N[C@@H](CCC(=O)N[C@@H](CCC(=O)NCCCOCCOCCOCCCNC(=O)CCC(=O)NCCCOCCOCCOCCCN*)C(=O)O)C(=O)O)C(=O)O; Suc = O=C(CCC(=O)[*:2])[*:1]; αMeK = C[C@](N)(CCCCN)C(=O)O; Aib = CC(C)(N)C(=O)O

The assay has as its target T1, RXFP1 (Homo sapiens, UniProt Q9HBX9).
T1 construct: OVCAR5 cells expressing endogenous RXFP1; endogenous in cells; host or cells: OVCAR5
T1 sequence (Q9HBX9 1-757): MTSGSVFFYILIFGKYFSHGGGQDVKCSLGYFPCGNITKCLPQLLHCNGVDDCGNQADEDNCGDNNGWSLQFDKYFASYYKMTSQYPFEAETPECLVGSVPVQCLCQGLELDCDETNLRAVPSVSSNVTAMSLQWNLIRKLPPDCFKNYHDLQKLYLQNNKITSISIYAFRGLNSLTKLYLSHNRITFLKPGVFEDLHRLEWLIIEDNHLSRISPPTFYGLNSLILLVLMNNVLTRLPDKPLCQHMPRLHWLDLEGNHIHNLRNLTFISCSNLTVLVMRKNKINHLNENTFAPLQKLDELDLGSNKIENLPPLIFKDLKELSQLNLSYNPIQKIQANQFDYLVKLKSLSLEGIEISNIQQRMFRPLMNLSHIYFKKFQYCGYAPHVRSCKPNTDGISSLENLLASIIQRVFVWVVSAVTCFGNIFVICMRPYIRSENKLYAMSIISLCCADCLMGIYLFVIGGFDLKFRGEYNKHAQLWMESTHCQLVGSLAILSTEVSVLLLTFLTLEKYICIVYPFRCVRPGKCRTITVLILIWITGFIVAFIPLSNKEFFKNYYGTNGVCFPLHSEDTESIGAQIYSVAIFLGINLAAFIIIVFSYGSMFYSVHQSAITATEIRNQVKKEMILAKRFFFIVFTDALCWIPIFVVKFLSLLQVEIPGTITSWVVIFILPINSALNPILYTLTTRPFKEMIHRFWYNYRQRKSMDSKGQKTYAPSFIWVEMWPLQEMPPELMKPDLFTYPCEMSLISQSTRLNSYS
Briefly: OVCAR5 cAMP assay (HTRF). The assay is classed as cell-based. The conditions noted are these: for EC50: OVCAR 5 cells expressing endogenous RXFP1, cAMP readout; for Emax: OVCAR 5 cells, maximal cAMP relative to H2-relaxin. The text has this:
OVCAR5 cells expressing endogenous RXFP1 were used to test RXP1 agonist properties of peptides of the invention, and in particular of the peptides of sequence SEQ ID NO: 1-97.
Since RXFP1 is a Gs coupled GPCR, cAMP was used as readout of RXFP1 activation.
Isobutyl Methyl Xanthine (IBMX) was used to inhibit phosphodiesterase activity facilitating cAMP measurements. HTRF (Homogenous Time Resolved Fluorescence) technology was used to detect cAMP due to its great sensitivity.
In summary, OVCAR5 were grown in regular medium (RPMI) containing 10% fetal calf serum (FCS) and 1% antibiotics (penicillin/streptomycin).
Before the experiments, cells were detached with accutase and incubated for 40 minutes at 37° C. with 1 mM (3-isobutyl-1-methylxanthine) IBMX.
Cells were then distributed in 384 black well plates containing increasing concentrations of the different peptides in a fix volume of medium (without FCS).
After an incubation of 30 min at 37° C. in an humid incubator in 5% CO2, the reaction was stopped by adding a fixed volume of a solution containing a lysis buffer and cAMP-D2 (cAMP labeled with the dye d2) and the anti cAMP antibody linked to Europium and used for cAMP detection.
Readout of the experiment were performed on a fluorimeter allowing HTRF measurement. Activation curves were generated by plotting the intracellular value of cAMP versus log 10 of the compound concentration.
The 50% activation concentration (EC50) was calculated by nonlinear regression using the sigmoidal dose-response (variable slope) equation with Prism 5 software.
Emax % was determined as the maximal intracellular value of cAMP for test compound (upper limit of cAMP vs concentration curve) divided by the maximal intracellular value of cAMP for H2-relaxin determined in the same test occasion multiplied by 100. Emax %=100×[cAMPtest cpd]/[cAMPH2-Rlx]
A general note: Changes in cAMP serve as a functional read-out for many G protein-coupled receptors.

For `CCCCCCCCCCCCCCCC(=O)N[C@@H](CCC(=O)N[C@@H](CCC(=O)N[C@@H](CCC(=O)NCCCOCCOCCOCCCNC(=O)CCC(=O)NCCCOCCOCCOCCCNC(=O)CCC(=O)NCCCOCCOCCOCCCNC(=O)CCC(=O)NCCCC[C@H](NC(=O)CNC(=O)[C@H](CCC(=O)O)NC(=O)C(C)(C)NC(=O)C(C)(C)NC(=O)[C@@H](NC(=O)[C@H](CCCCNC(C)=O)NC(=O)C(C)(C)NC(=O)[C@H](CCCNC(=N)N)NC(=O)[C@@H](NC(=O)[C@H](CCCCN)NC(=O)[C@H](CCC(=O)O)NC(=O)[C@H](CCCNC(=N)N)NC(=O)CNC(=O)[C@H](CCC(=O)O)NC(=O)[C@H](CC(C)C)NC(C)=O)C(C)C)[C@@H](C)CC)C(=O)N[C@@H](CO)C(=O)N[C@H](C(=O)N[C@@H](Cc1ccccc1)C(=O)N[C@@H](CO)C(=O)N[C@@](C)(CCCCN)C(=O)N[C@@H](CCCNC(=N)N)C(=O)N[C@@H](C)C(=O)N[C@@H](CCCCNC(C)=O)C(N)=O)[C@@H](C)O)C(=O)O)C(=O)O)C(=O)O` [compound 29] (Ac-LEGREKVR[Aib]K(Ac)I[Aib][Aib]EGK([Suc-X1])STFS[αMeK]RAK(Ac)-NH2), a half-maximal effect (EC50) was put at 1.6 nM and the Emax came out at 88%.
In the case of `CCCCCCCCCCCCCCCCCC(=O)N[C@@H](CCC(=O)N[C@@H](CCC(=O)N[C@@H](CCC(=O)NCCCOCCOCCOCCCNC(=O)CCC(=O)NCCCOCCOCCOCCCNC(=O)CCC(=O)NCCCOCCOCCOCCCNC(=O)CCC(=O)NCCCC[C@H](NC(=O)CNC(=O)[C@H](CCC(=O)O)NC(=O)C(C)(C)NC(=O)C(C)(C)NC(=O)[C@@H](NC(=O)[C@H](CCCCNC(C)=O)NC(=O)[C@H](C)NC(=O)[C@H](CCCNC(=N)N)NC(=O)[C@@H](NC(=O)[C@H](CCCCN)NC(=O)[C@H](CCC(=O)O)NC(=O)[C@H](CCCNC(=N)N)NC(=O)CNC(=O)[C@H](CCC(=O)O)NC(=O)[C@H](CC(C)C)NC(C)=O)C(C)C)[C@@H](C)CC)C(=O)N[C@@H](CO)C(=O)N[C@H](C(=O)N[C@@H](Cc1c[nH]c2ccccc12)C(=O)N[C@@H](CO)C(=O)N[C@@](C)(CCCCN)C(=O)N[C@@H](CCCNC(=N)N)C(=O)N[C@@H](C)C(=O)N[C@@H](CCCCNC(C)=O)C(N)=O)[C@@H](C)O)C(=O)O)C(=O)O)C(=O)O` [compound 30] (Ac-LEGREKVRAK(Ac)I[Aib][Aib]EGK([Suc-X3])STWS[αMeK]RAK(Ac)-NH2), the EC50 is 0.21 nM and the Emax was 89%.
`CCCCCCCCCCCCCCCC(=O)N[C@@H](CCC(=O)N[C@@H](CCC(=O)N[C@@H](CCC(=O)NCCCOCCOCCOCCCNC(=O)CCC(=O)NCCCOCCOCCOCCCNC(=O)CCC(=O)NCCCOCCOCCOCCCNC(=O)CCC(=O)NCCCC[C@H](NC(=O)CNC(=O)[C@H](CCC(=O)O)NC(=O)C(C)(C)NC(=O)C(C)(C)NC(=O)[C@@H](NC(=O)[C@H](CCCCNC(C)=O)NC(=O)[C@H](C)NC(=O)[C@H](CCCNC(=N)N)NC(=O)[C@@H](NC(=O)[C@H](CCCCN)NC(=O)[C@H](CCC(=O)O)NC(=O)[C@H](CCCNC(=N)N)NC(=O)CNC(=O)[C@H](CCC(=O)O)NC(=O)[C@H](CC(C)C)NC(C)=O)C(C)C)[C@@H](C)CC)C(=O)N[C@@H](CO)C(=O)N[C@H](C(=O)N[C@@H](Cc1c[nH]c2ccccc12)C(=O)N[C@@H](CO)C(=O)NC(C)(C)C(=O)N[C@@H](CCCNC(=N)N)C(=O)N[C@@H](CCCNC(=N)N)C(=O)N[C@@H](CCCCNC(C)=O)C(N)=O)[C@@H](C)O)C(=O)O)C(=O)O)C(=O)O` [compound 31] (Ac-LEGREKVRAK(Ac)I[Aib][Aib]EGK([Suc-X1])STWS[Aib]RRK(Ac)-NH2) gave an Emax of 94%.
Consider `CCCCCCCCCCCCCCCCCC(=O)N[C@@H](CCC(=O)N[C@@H](CCC(=O)N[C@@H](CCC(=O)NCCCOCCOCCOCCCNC(=O)COCC(=O)NCCCOCCOCCOCCCNC(=O)COCC(=O)NCCCOCCOCCOCCCNC(=O)COCC(=O)NCCCC[C@H](NC(=O)CNC(=O)[C@H](CCC(=O)O)NC(=O)C(C)(C)NC(=O)C(C)(C)NC(=O)[C@@H](NC(=O)[C@H](CCCCNC(C)=O)NC(=O)[C@H](C)NC(=O)[C@H](CCCNC(=N)N)NC(=O)[C@@H](NC(=O)[C@H](CCCCN)NC(=O)[C@H](CCC(=O)O)NC(=O)[C@H](CCCNC(=N)N)NC(=O)CNC(=O)[C@H](CCC(=O)O)NC(=O)[C@H](CC(C)C)NC(C)=O)C(C)C)[C@@H](C)CC)C(=O)N[C@@H](CO)C(=O)N[C@H](C(=O)N[C@@H](Cc1ccccc1)C(=O)N[C@@H](CO)C(=O)N[C@@](C)(CCCCN)C(=O)N[C@@H](CCCNC(=N)N)C(=O)N[C@@H](C)C(=O)N[C@@H](CCCCNC(C)=O)C(N)=O)[C@@H](C)O)C(=O)O)C(=O)O)C(=O)O` [compound 32] (Ac-LEGREKVRAK(Ac)I[Aib][Aib]EGK(X15)STFS[αMeK]RAK(Ac)-NH2), for which the response was half-maximal at 0.1 nM (EC50) and the Emax was 97%.
For the molecule `CCCCCCCCCCCCCCCCCC(=O)N[C@@H](CCC(=O)N[C@@H](CCC(=O)N[C@@H](CCC(=O)NCCCOCCOCCOCCCNC(=O)CCC(=O)NCCCOCCOCCOCCCNC(=O)CCC(=O)NCCCC[C@H](NC(=O)CNC(=O)[C@H](CCC(=O)O)NC(=O)C(C)(C)NC(=O)C(C)(C)NC(=O)[C@@H](NC(=O)[C@H](CCCCNC(C)=O)NC(=O)[C@H](C)NC(=O)[C@H](CCCNC(=N)N)NC(=O)[C@@H](NC(=O)[C@H](CCCCN)NC(=O)[C@H](CCC(=O)O)NC(=O)[C@H](CCCNC(=N)N)NC(=O)CNC(=O)[C@H](CCC(=O)O)NC(=O)[C@H](CC(C)C)NC(C)=O)C(C)C)[C@@H](C)CC)C(=O)N[C@@H](CO)C(=O)N[C@H](C(=O)N[C@@H](Cc1ccccc1)C(=O)N[C@@H](CO)C(=O)N[C@@](C)(CCCCN)C(=O)N[C@@H](CCCNC(=N)N)C(=O)N[C@@H](C)C(=O)N[C@@H](CCCCNC(C)=O)C(N)=O)[C@@H](C)O)C(=O)O)C(=O)O)C(=O)O` [compound 34] (Ac-LEGREKVRAK(Ac)I[Aib][Aib]EGK([Suc-X4])STFS[αMeK]RAK(Ac)-NH2), the concentration giving a half-maximal response (EC50) stood at 0.14 nM and the Emax amounted to 90%.
For the molecule `CCCCCCCCCCCCCCCC(=O)N[C@@H](CCC(=O)N[C@@H](CCC(=O)N[C@@H](CCC(=O)NCCCOCCOCCOCCCNC(=O)CCC(=O)NCCCOCCOCCOCCCNC(=O)CCC(=O)NCCCOCCOCCOCCCNC(=O)CCC(=O)NCCCC[C@H](NC(=O)CNC(=O)[C@H](CCC(=O)O)NC(=O)C(C)(C)NC(=O)C(C)(C)NC(=O)[C@@H](NC(=O)[C@H](CCCCNC(C)=O)NC(=O)[C@H](C)NC(=O)[C@H](CCCNC(=N)N)NC(=O)[C@@H](NC(=O)[C@H](CCCCN)NC(=O)[C@H](CCC(=O)O)NC(=O)[C@H](CCCNC(=N)N)NC(=O)CNC(=O)[C@H](CCC(=O)O)NC(=O)[C@H](CC(C)C)NC(C)=O)C(C)C)[C@@H](C)CC)C(=O)N[C@@H](CO)C(=O)N[C@H](C(=O)N[C@@H](Cc1c[nH]c2ccccc12)C(=O)NC(C)(C)C(=O)N[C@@H](CCCCN)C(=O)N[C@@H](CCCNC(=N)N)C(=O)N[C@@H](C)C(=O)N[C@@H](CCCCNC(C)=O)C(N)=O)[C@@H](C)O)C(=O)O)C(=O)O)C(=O)O` [compound 35] (Ac-LEGREKVRAK(Ac)I[Aib][Aib]EGK([Suc-X1])STW[Aib]KRAK(Ac)-NH2), it took 2.33 nM to reach a half-maximal effect (EC50) and the Emax is 91%.
